Reference: patent US20230287389A1, “A METHOD FOR GENERATING NEW MUTATION IN ORGANISM AND USE THEREOF” (Qingdao Kingagroot Chemical Compound Co., Ltd., priority 2019, published 2023)

Key:
[1] = test system: T1 generation OsACCase2 W2038L edited seedlings; test: Resistance test of T1 generation OsACCase2 W2038L edited seedlings to ACCase inhibitor herbicides; assay type: in vivo, Oryza sativa; conditions: for Resistance of OsACCase2 W2038L mutant strain: field concentrations
Method: After the propagation of the TO strain containing the W2038L mutation, the T1 generation mutant seedlings were tested for herbicide resistance with quizalofop-p and haloxyfop-p in field concentrations.

[2] = test system: T1 generation OsALS W548 site and OsSWEET14 double-site edited seedlings; test: Resistance test of T1 generation OsALS W548L edited seedlings to ALS inhibitor herbicides; assay type: in vivo, Oryza sativa; conditions: for Resistance of OsALS W548L mutant strain: field concentrations
Method: After the propagation of TO strains in which the occurrence of OsALS W548L mutation was detected, the T1 generation mutant seedling strains were tested for herbicide resistance with pyroxsulam, imazapic, nicosulfuron and flucarbazone-Na at field concentrations.

[3] = test system: Arabidopsis thaliana; test: Selection of Arabidopsis thaliana seedlings on imazapic medium; assay type: in vivo
Method: After the seeds of the T1 strain were harvested from single plant, the seeds of different strains of two vectors were selected and spread on the imazapic selection medium (MS medium+0.24 μg/mL imazapic) to perform selection, and the positive seedlings were transplanted to the soil one week later and subjected to molecular detection, in which the method was the same as step 5.

C[C@@H](Oc1ccc(Oc2ncc(C(F)(F)F)cc2Cl)cc1)C(=O)O [Haloxyfop-p]
Resistance of W2038L edited strains QY367-7-12 and QY367-7-18 ([1]; 5 g/mu active ingredient of Haloxyfop-p): developed resistance | Resistance of OsACCase2 W2038L mutant strain [1]: significantly resistant

COc1nn(C(=O)[N-]S(=O)(=O)c2ccccc2OC(F)(F)F)c(=O)n1C.[Na+] [flucarbazone-Na]
Resistance of W548L edited strain QY360-7-9 ([2]; 2 g/mu active ingredient of flucarbazone-Na): developed resistance | Resistance of OsALS W548L mutant strain [2]: significant resistance

Cc1cnc(C2=NC(=O)C(C)(C(C)C)N2)c(C(=O)O)c1 (stereo not drawn) [imazapic]
Resistance of W548L edited strain QY360-7-11 ([2]; 7 g/mu active ingredient of imazapic): developed resistance | Resistance of OsALS W548L mutant strain [2]: significant resistance | Response of W574M edited T1 plant to imazapic treatment ([3]; Example 3): showed resistance | Growth of wild-type Col-0 on imazapic resistant medium ([3]; MS medium + 0.24 μg/mL imazapic): could not grow | Growth of positive plants of the mutant strains on imazapic resistant medium ([3]; MS medium + 0.24 μg/mL imazapic, T2): could grow normally

COc1cc(OC)nc(NC(=O)NS(=O)(=O)c2ncccc2C(=O)N(C)C)n1 [nicosulfuron]
Resistance of W548L edited strain QY360-7-11 ([2]; 4 g/mu active ingredient of nicosulfuron): developed resistance | Resistance of OsALS W548L mutant strain [2]: significant resistance

COc1cc(OC)n2nc(NS(=O)(=O)c3c(C(F)(F)F)ccnc3OC)nc2n1 [pyroxsulam]
Resistance of W548L edited strains QY360-7-2 and QY360-7-11 ([2]; 2 g/mu active ingredient of pyroxsulam): developed resistance | Resistance of OsALS W548L mutant strain [2]: significant resistance

C[C@@H](Oc1ccc(Oc2cnc3cc(Cl)ccc3n2)cc1)C(=O)O [quizalofop-p]
Resistance of W2038L edited strains QY367-5-10 and QY367-5-21 ([1]; 5 g/mu active ingredient of quizalofop-p): developed resistance | Resistance of OsACCase2 W2038L mutant strain [1]: significantly resistant
